# From patent US6906237B2, “Vivo assay for anti angiogenic compounds” (priority 2001, dated 2005)
# “Also recorded” adds a separate entry of the source.
# B1: endostatin: recombinant human endostatin, 22kD protein expressed by HEK293 cells stably transfected with plasmid pGT60hEndo (HEK293endo) (protein, UniProt P39060 1572-1754, looked up)
# Endostatin: HSHRDFQPVLHLVALNSPLSGGMRGIRGADFQCFQQARAVGLAGTFRAFLSSRLQDLYSIVRRADRAAVPIVNLKDELLFPSWEALFSGSEGPLKPGARIFSFDGKDVLRHPTWPQKSVWHGSDPNGRRLTESYCETWRTEAPSATGQASSLLGGRLLGQSAASCHHAYIVLCIENSFMTASK
# modifications: Endostatin
# Experiments:
# [1] = system: HDMEC-GT derived microvessels; assay: SCID mice xenografting of HDMEC-GT in Matrigel with pro-angiogenic factors; human vessel density by human type IV collagen micromorphometry; format: in vivo, human cells in SCID mice; settings: for human vessel density (human type IV collagen micromorphometry), result in words: VEGF 2 μg/ml or FGF-2 150 ng/ml in Matrigel with HDMEC-GT, two weeks after implantation, versus controls
# Procedure: (§1) This procedure is based on a modification of the mouse angiogenesis model previously described^41. Two-three week old male or female SCID mice (Taconic, Germantown, N.Y.) were used as hosts for all implants. Primary HDMEC and HDMEC-T were harvested, washed twice and re-suspended in serum-free EGM-2 basal medium at the concentration of 1×10^5/μl. Ten μl of cells were mixed with 0.5 ml of Matrigel on ice and the mixture was implanted in the ventral midline thoracic tissue of each mouse by subcutaneous injection using a #25 needle. Up to three separate injections could be performed on a single mouse. For some experiments, recombinant human VEGF165 (2 μg/ml) (R&D systems, Minneapolis, Minn.) or bovine FGF-2 (150 ng/ml) (R&D systems, Minneapolis, Minn.) were added to the mixture. When tumor cells (HT1080 and 293, ATCC) or primary human dermal fibroblasts^38 were injected, the procedure remained the same except basal D-MEM medium replaced EGM-2.
# (§2) Matrigel implants were removed at 1, 2, 4 and 6 wk following xenografting, fixed in 10% buffered formalin overnight, paraffin-embedded and sectioned. H&E stained thin sections were prepared at Pan-insular Histopathology laboratory (Los Gatos, Calif.). For immunofluoresence, thin sections were deparaffinized and antigens retrieved in 10 mM citric acid (pH 6.0) by microwaving sections for 2×7 min. Sections were then incubated with anti-human type IV collagen IgG (Sigma, St. Louis, Mo.) primary antibody, followed by washing and Cy-3 conjugated secondary IgG according to standard protocols. […] For micromorphometry, 5 separate 20× fields were randomly selected per tissue section and the number of annular structures were counted and averaged. Unless specifically stated otherwise, 3 different sections were viewed per implant and replicate implants were grafted for each experimental condition (FIGS. 3 and 6).
# [2] = system: host murine blood vessels; assay: Host vessel invasion of Matrigel implants in SCID mice without human EC; format: in vivo; settings: FGF-2 alone in Matrigel, no HDMEC
# Procedure: as §1
# Matrigel implants were removed at 1, 2, 4 and 6 wk following xenografting, fixed in 10% buffered formalin overnight, paraffin-embedded and sectioned. H&E stained thin sections were prepared at Pan-insular Histopathology laboratory (Los Gatos, Calif.). […] For micromorphometry, 5 separate 20× fields were randomly selected per tissue section and the number of annular structures were counted and averaged. […]
# [3] = system: HDMEC-GT derived microvessels; assay: Endostatin blocking experiments: HDMEC-GT co-implanted with endostatin cDNA-transfected HEK293 cells in Matrigel in SCID mice; format: in vivo, human cells in SCID mice; settings: 1:10 ratio HEK293endo to HDMEC-GT, implants removed after one and two weeks, versus sham-transfected HEK293lacZ
# Procedure: as §2
# For digital analysis of eGFP fluorescence images we used a novel algorithm (Moss Filter™) to determine the total amount of vascularization in each implant section. This filter determines whether or not each pixel is part of the fluorescently-labeled vascular region. The filter converts the original (8-bit) digital image into a binary image. Pixel values equal to 1 indicate vascularization, whereas zero values indicate no vascularization. The total amount of vascularization in each implant section is obtained by summing all the values in the binary image.
# Inhibition of in vivo vessel formation by local delivery of human endostatin was accomplished as follows: The plasmid pGT60hEndo, expressing recombinant human endostatin (InvivoGen, San Diego, Calif.), was stably transfected into human embryonic kidney (HEK293) cell line by calcium phosphate transfection (Invitrogen, Carlsbad, Calif.). […] HEK293 cells expressing lacZ served as a control for both Western blots and grafting experiments. The cell implantation procedure was the same as that described above except that 1×10^5 (or 10^4 or 10^3) transfected HEK were mixed with HDMEC-GT immediately prior to implantation. Grafts were examined at both one week and two after injection and sections were analyzed by both micromorphometry and eGFP as previously described.
# [4] = listed as recombinant human endostatin
Molecule,"human vessel density (human type IV collagen micromorphometry), result in words [1]",host vessel invasion of Matrigel implants [2],"increased vessel density relative to controls ([1]; VEGF 2 μg/ml mixed with HDMEC-GT and Matrigel, two weeks after grafting, human type IV collagen micromorphometry)",vessel density by micromorphometry (human type IV collagen staining) [3],vessel density by total fluorescence intensity extracted from binary images of eGFP (Moss Filter) [3],"vessel density by micromorphometry (human type IV collagen staining) [3, 4]","vessel density by total fluorescence intensity extracted from binary images of eGFP (Moss Filter) [3, 4]"
"FGF-2: bovine FGF-2 (R&D systems), known pro-angiogenic factor",statistically increased human vessel density,stimulated; also recorded: marked host vessel invasion,,,,,
VEGF,increased vessel density; also recorded: did not demonstrate statistical significance,,20-30%,,,,
B1,,,,statistically significant loss of vessel density,statistically significant loss of vessel density,decreased microvessel formation,decreased microvessel formation
